pIC50: −log10 of the molar value. Like-named read-outs stand apart in the source and are kept apart here. Blank lines part the entries; values can stand above or below the compound they belong to.
Biological target: b-Raf (V600E) (Homo sapiens (Human), UniProt P15056, V600E)
Settings: read-out: b-Raf IC-50
[1] = Table 2, AlphaScreen, 3 hours reaction
[2] = AlphaScreen, 60 min pre-incubation, reaction 3 hours at room temperature
[3] = AlphaScreen, 60 min pre-incubation, 3 hours reaction

b-Raf (V600E), sequence (P15056 whole entry V600E): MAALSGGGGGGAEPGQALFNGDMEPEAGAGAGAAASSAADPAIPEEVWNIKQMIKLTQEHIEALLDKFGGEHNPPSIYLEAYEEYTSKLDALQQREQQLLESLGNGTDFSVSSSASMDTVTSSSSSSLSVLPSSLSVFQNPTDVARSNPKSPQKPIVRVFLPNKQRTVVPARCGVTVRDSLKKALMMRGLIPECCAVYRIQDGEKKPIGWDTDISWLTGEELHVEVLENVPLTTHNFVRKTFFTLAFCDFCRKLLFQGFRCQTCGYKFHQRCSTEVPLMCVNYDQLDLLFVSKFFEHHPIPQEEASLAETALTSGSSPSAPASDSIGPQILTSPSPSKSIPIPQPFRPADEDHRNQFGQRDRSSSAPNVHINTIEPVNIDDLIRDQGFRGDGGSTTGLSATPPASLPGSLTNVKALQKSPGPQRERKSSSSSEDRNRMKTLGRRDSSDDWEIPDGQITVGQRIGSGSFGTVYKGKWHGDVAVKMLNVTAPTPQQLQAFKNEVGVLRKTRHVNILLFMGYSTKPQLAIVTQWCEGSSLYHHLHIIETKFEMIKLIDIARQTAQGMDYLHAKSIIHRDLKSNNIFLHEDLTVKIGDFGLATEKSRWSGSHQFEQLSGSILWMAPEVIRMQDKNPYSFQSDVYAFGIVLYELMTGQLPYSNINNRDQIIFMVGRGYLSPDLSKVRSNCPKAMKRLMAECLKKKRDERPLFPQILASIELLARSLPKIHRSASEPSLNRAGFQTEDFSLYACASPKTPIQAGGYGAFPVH

- pIC50 [1]: 5.55
Compound: Cc1cc(C(=O)Nc2cnc(C)c(-c3cc(N4CCOCC4)c(=O)n(C)c3)c2)n(C)n1 [Example 376, N-(1′,2-dimethyl-5′-morpholino-6′-oxo-1′,6′-dihydro-[3,3′-bipyridin]-5-yl)-1,3-dimethyl-1H-pyrazole-5-carboxamide]

Compound: CCOc1nnc(-c2cc(NC(=O)c3ccc(CNC)c(C(F)(F)F)c3)ccc2C)cc1N1CCOCC1 [Example 574, N-(3-(6-ethoxy-5-morpholinopyridazin-3-yl)-4-methylphenyl)-4-((methylamino)methyl)-3-(trifluoromethyl)benzamide]
- pIC50: 8.66

- pIC50 [2]: 8.73
Compound: Cc1ncc(NC(=O)c2ccnc(C(F)(F)F)c2)cc1-c1cnc(OC(F)F)c(N2CCOCC2)c1 [Example 978]

- pIC50 [1]: 9.10
Compound: Cc1ccc(NC(=O)c2ccnc(S(C)(=O)=O)c2)cc1-c1cnc(OC2CCOCC2)c(N2CCOCC2)c1 [Example 274, N-(4-methyl-3-(5-morpholino-6-((tetrahydro-2H-pyran-4-yl)oxy)pyridin-3-yl)phenyl)-2-(methylsulfonyl)isonicotinamide]

- pIC50 [2]: 8.12
Compound: Cc1ccc(NC(=O)c2ccnc(C(C)(C)C#N)c2)cc1-c1nc2c(c(N3CCOCC3)n1)CNC2 [Example 866, 2-(2-cyanopropan-2-yl)-N-(4-methyl-3-(4-morpholino-6,7-dihydro-5H-pyrrolo[3,4-d]pyrimidin-2-yl)phenyl)isonicotinamide]

- pIC50 [3]: 8.35
Compound: Cc1ccc(NC(=O)c2ccnc(C3COC3)c2)cc1-c1cc(N2CCOCC2)c(=O)n(C)n1 [Example 648, N-(4-methyl-3-(1-methyl-5-morpholino-6-oxo-1,6-dihydropyridazin-3-yl)phenyl)-2-(oxetan-3-yl)isonicotinamide]

- pIC50 [1]: 8.33
Compound: Cc1ncc(NC(=O)c2ccnc(C(C)(C)C#N)c2)cc1-c1cnc(OCC(F)F)c(N2CCOCC2)c1 [Example 228, 2-(2-cyanopropan-2-yl)-N-(6′-(2,2-difluoroethoxy)-2-methyl-5′-morpholino-[3,3′-bipyridin]-5-yl)isonicotinamide]

- pIC50 [2]: 8.67
Compound: Cc1ncc(NC(=O)c2ccnc(C(F)F)c2)cc1-c1cc(N2CCOCC2)c(OC(C)C)nn1 [Example 913, 2-(difluoromethyl)-N-(5-(6-isopropoxy-5-morpholinopyridazin-3-yl)-6-methylpyridin-3-yl)isonicotinamide]

- pIC50 [3]: 7.99
Compound: Cc1ccc(NC(=O)c2ccnc(C(C)(C)C#N)c2)cc1-c1cc(N2CCOCC2)nc(N2CC(O)C2)n1 [Example 769]

- pIC50 [3]: 9.22
Compound: Cc1ccc(NC(=O)c2cccc(C(F)(F)F)c2)cc1-c1nc(N2CCOCC2)c2cnn(C)c2n1 [Example 840, N-(4-methyl-3-(1-methyl-4-morpholino-1H-pyrazolo[3,4-d]pyrimidin-6-yl)phenyl)-3-(trifluoromethyl)benzamide]

- pIC50 [1]: 8.41
Compound: CCOc1ncc(-c2cc(NC(=O)c3cccc(S(C)(=O)=O)c3)cnc2C)cc1N1CCOCC1 [Example 242, N-(6′-ethoxy-2-methyl-5′-morpholino-[3,3′-bipyridin]-5-yl)-3-(methylsulfonyl)benzamide]

- pIC50 [3]: 9.00
Compound: Cc1ccc(NC(=O)c2cc(C(F)(F)F)ccn2)cc1-c1cc(N2CCOCC2)c(OCCO)nn1 [Example 586, N-(3-(6-(2-hydroxyethoxy)-5-morpholinopyridazin-3-yl)-4-methylphenyl)-4-(trifluoromethyl)picolinamide]

- pIC50 [2]: 9.42
Compound: Cc1ccc(NC(=O)c2cnnc(C3CC3)c2)cc1-c1cc(OCCO)nc(N2CCOCC2)c1 [Example 1162, 6-cyclopropyl-N-(3-(2-(2-hydroxyethoxy)-6-morpholinopyridin-4-yl)-4-methylphenyl)pyridazine-4-carboxamide]

- pIC50 [1]: 9.30
Compound: Cc1ccc(NC(=O)c2cccc(C(F)(F)F)c2)cc1-c1cc(N2CCOCC2)ccn1 [Example 111, N-(4-methyl-3-(4-morpholinopyridin-2-yl)phenyl)-3-(trifluoromethyl)benzamide]

- pIC50 [2]: 8.87
Compound: Cc1ccc(NC(=O)c2ccnc(C(C)(F)F)c2)cc1-c1cnc(OC(C)C)c(N2CCOCC2)c1 [Example 945, 2-(1,1-difluoroethyl)-N-(3-(6-isopropoxy-5-morpholinopyridin-3-yl)-4-methylphenyl)isonicotinamide]

- pIC50 [3]: 8.77
Compound: Cc1ccc(NC(=O)c2ccnc(C(C)(C)F)c2)cc1-c1cc(N2CCOCC2)c(=O)n(C)n1 [Example 654, 2-(2-fluoropropan-2-yl)-N-(4-methyl-3-(1-methyl-5-morpholino-6-oxo-1,6-dihydropyridazin-3-yl)phenyl)isonicotinamide]

- pIC50 [2]: 8.71
Compound: CCC(F)(F)c1cc(C(=O)Nc2cnc(C)c(-c3cc(N4CCOCC4)c(OCC(F)F)nn3)c2)ccn1 [Example 914, N-(5-(6-(2,2-difluoroethoxy)-5-morpholinopyridazin-3-yl)-6-methylpyridin-3-yl)-2-(1,1-difluoropropyl)isonicotinamide]

- pIC50 [3]: 8.96
Compound: COCCOc1nnc(-c2cc(NC(=O)c3ccnc(C(F)F)c3)ccc2C)cc1N1CCOCC1 [Example 598, 2-(difluoromethyl)-N-(3-(6-(2-methoxyethoxy)-5-morpholinopyridazin-3-yl)-4-methylphenyl)isonicotinamide]

- pIC50 [2]: 8.10
Compound: Cc1ncc(NC(=O)c2ccnc(C(C)(C)F)c2)cc1-c1cc(N2CCOCC2)c(S(C)(=O)=O)nn1 [Example 927, 2-(2-fluoropropan-2-yl)-N-(6-methyl-5-(6-(methylsulfonyl)-5-morpholinopyridazin-3-yl)pyridin-3-yl)isonicotinamide]

- pIC50 [1]: 7.30
Compound: Cn1cc(-c2cc(C(=O)Nc3cccc(C(C)(C)O)c3)cnc2Cl)cc(N2CCOCC2)c1=O [Example 424, 2-chloro-N-(3-(2-hydroxypropan-2-yl)phenyl)-t-methyl-5′-morpholino-6′-oxo-1′,6′-dihydro-[3,3′-bipyridine]-5-carboxamide]

- pIC50 [2]: 7.92
Compound: Cc1ncc(NC(=O)c2ccnc(S(C)(=O)=O)c2)cc1-c1cc(N2CCOCC2)nc(N2CCOCC2)c1 [Example 1124, N-(2-methyl-2′,6′-dimorpholino-[3,4′-bipyridin]-5-yl)-2-(methylsulfonyl)isonicotinamide]

- pIC50 [1]: 9.05
Compound: Cc1ccc(C(=O)Nc2cccc(C(F)(F)F)c2)cc1-c1cc(N2CCOCC2)ccn1 [Example 64, 4-methyl-3-(4-morpholinopyridin-2-yl)-N-(3-(trifluoromethyl)phenyl)benzamide]

- pIC50 [3]: 7.08
Compound: Cc1ccc(NC(=O)c2cccc(C(F)(F)F)c2)cc1-c1cc(N2CCOCC2=O)c(=O)n(C)c1 [Example 451, N-(4-methyl-3-(1-methyl-6-oxo-5-(3-oxomorpholino)-1,6-dihydropyridin-3-yl)phenyl)-3-(trifluoromethyl)benzamide]

- pIC50 [3]: 8.82
Compound: CCC(F)(F)c1cc(C(=O)Nc2ccc(C)c(-c3cc(N4CCOCC4)c(OCCO)nn3)c2)ccn1 [Example 589, 2-(1,1-difluoropropyl)-N-(3-(6-(2-hydroxyethoxy)-5-morpholinopyridazin-3-yl)-4-methylphenyl)isonicotinamide]

- pIC50 [1]: 7.61
Compound: Cc1ncc(NC(=O)c2cnnc(C(C)(C)C#N)c2)cc1-c1cncc(N2CCOCC2)c1 [Example 296, 6-(2-cyanopropan-2-yl)-N-(2-methyl-5′-morpholino-[3,3′-bipyridin]-5-yl)pyridazine-4-carboxamide]

- pIC50 [3]: 8.44
Compound: Cc1ncc(NC(=O)c2cccc(C(F)(F)F)c2)cc1-c1cc(N2CCOCC2)nc(N[C@@H](C)CO)n1 [Example 745, (S)—N-(5-(2-((1-hydroxypropan-2-yl)amino)-6-morpholinopyrimidin-4-yl)-6-methylpyridin-3-yl)-3-(trifluoromethyl)benzamide]

Compound: Cn1c(N2C3CCC2COC3)cc(-c2cc(NC(=O)c3ccnc(C(C)(F)F)c3)cnc2Cl)cc1=O [Example 528, N-(6′-(3-oxa-8-azabicyclo[3.2.1]octan-8-yl)-2-chloro-1′-methyl-2′-oxo-1′,2′-dihydro-[3,4′-bipyridin]-5-yl)-2-(1,1-difluoroethyl)isonicotinamide]
- pIC50 [3]: 7.82

- pIC50 [3]: 7.75
Compound: Cc1ccc(NC(=O)c2ccnc(C(C)(C)C#N)c2)cc1-c1cc(N2CCOCC2)nc(N(C)C)n1 [Example 755, 2-(2-cyanopropan-2-yl)-N-(3-(2-(dimethylamino)-6-morpholinopyrimidin-4-yl)-4-methylphenyl)isonicotinamide]

- pIC50 [3]: 8.35
Compound: Cc1ccc(NC(=O)c2cnnc(C(F)(F)F)c2)cc1-c1cc(N2CCOCC2)n(C)c(=O)c1 [Example 495, N-(4-methyl-3-(1-methyl-6-morpholino-2-oxo-1,2-dihydropyridin-4-yl)phenyl)-6-(trifluoromethyl)pyridazine-4-carboxamide]

- pIC50 [2]: 8.93
Compound: Cc1ccc(NC(=O)c2ccnc(C(F)(F)F)c2)cc1-c1cc(NCC2CCOC2)nc(N2CCOCC2)c1 (stereo not shown) [Example 1055, N-(4-methyl-3-(2-morpholino-6-(((tetrahydrofuran-3-yl)methyl)amino)pyridin-4-yl)phenyl)-2-(trifluoromethyl)isonicotinamide]

- pIC50 [2]: 7.95
Compound: Cc1ncc(NC(=O)c2ccnc(C(C)(C)F)c2)cc1-c1cc(NCCO)nc(N2CCOCC2)c1 [Example 1056, 2-(2-fluoropropan-2-yl)-N-(2′-((2-hydroxyethyl)amino)-2-methyl-6′-morpholino-[3,4′-bipyridin]-5-yl)isonicotinamide]

- pIC50 [3]: 8.89
Compound: CCOc1nnc(-c2cc(NC(=O)c3ccnc(C(C)(F)F)c3)ccc2C)cc1N1CCOCC1 [Example 565, 2-(1,1-difluoroethyl)-N-(3-(6-ethoxy-5-morpholinopyridazin-3-yl)-4-methylphenyl)isonicotinamide]

- pIC50 [3]: 8.31
Compound: Cc1ccc(NC(=O)c2ccnc(C(C)(C)C#N)c2)cc1-c1cc(C2CCOCC2)c(=O)n(C)n1 [Example 675, 2-(2-cyanopropan-2-yl)-N-(4-methyl-3-(1-methyl-6-oxo-5-(tetrahydro-2H-pyran-4-yl)-1,6-dihydropyridazin-3-yl)phenyl)isonicotinamide]

- pIC50 [1]: 8.05
Compound: COc1ncc(-c2cc(NC(=O)c3cnnc(C(F)(F)F)c3)cnc2Cl)cc1N1CCOCC1 [Example 263, N-(2-chloro-6′-methoxy-5′-morpholino-[3,3′-bipyridin]-5-yl)-6-(trifluoromethyl)pyridazine-4-carboxamide]
